Experimental data from patent US10047059B2, “Substituted quinoxalines for inhibiting kinase activity” (NEUPHARMA, INC., priority 2012, dated 2018).
pIC50: −log10 of the molar value.

Tests used:
A549 cells = assay: Inhibition of cancer cell growth, MTT or MTS assay, A549; type: cell-based; details: Homo sapiens, 72 h incubation
Description: (§1) Inhibition of cell growth by compounds was measured using MTT or MTS assay. Tumor cell lines were purchased from ATCC (American Type Culture Collection, Manassas, Va.). All cell lines were maintained in RPMI 1640 (Hyclone) supplemented with 10% fetal bovine serum (FBS, Hyclone), glutamine (2 mM, Hyclone), and antibiotics (penicillin 100 U/mL and streptomycin 50 μg/mL) at 37° C. in a humidified atmosphere of 5% CO2 in air. Taxol (as a positive control, Sigma) and compounds were dissolved in DMSO (Sigma), and the final concentration of DMSO in the medium was 1%. Tumor cells were plated in 96-well plates at densities of about 2000 (A375) or 4000 (A549 and Colo205) cells/well of a 96-well plate and allowed to adhere/grow for 24 h. They were then treated with various concentrations of drug and incubated for 72 h. For MTT method, medium was then removed by inverting and tapping the plates. 100 μL of MTT (0.5 mg/ml) was added to each well followed by an incubated at 37° C. for 4 h. MTT was then removed and 200 μL of DMSO was added to each well, and the ODs at 570 nm were measured after a 5 second shaking cycle in a 96-well spectrophotometer. For MTS method, 20 μL MTS (CellTiter 96 Aqueous One Solution, Promega) was added to each well followed by an incubated at 37° C. for 2-4 h, solutions were then directly put in a 96-well spectrophotometer, and the ODs at 490 nm were measured.
(§2) All concentrations of compounds were tested in triplicate and controls were averaged over 4 wells. IC50 was calculated by plotting the concentration of compound vs the percentage of inhibition in treated wells using GraphPad Prism 5. […] The scale utilized in Tables 7-9 is as follows: +++ less than 1000 nM; ++ between 1000 nM and 5000 nM; and + greater than 5000 nM. The scale utilized in […]

BRAF = molecular target: T1, BRAF (Homo sapiens, UniProt P15056); assay: Z'-LYTE kinase inhibition assay against BRAF; type: biochemical; details: Z'-LYTE method
T1 construct: purchased Invitrogen
Description: (§3) Inhibitory activities Inhibitory activities of compounds against BRAF, and BRAF V600E were measured by Invitrogen using Z′-LYTE® Method as briefly described in the following. 4× Test compounds are dissolved in 1% DMSO. […] ATP solutions are diluted to a 4×ATP working concentration in Kinase Buffer (50 mM HEPES pH 7.5, 0.01% BRIJ-35, 10 mM MgCl2, 1 mM EGTA). Reaction started by 30-second shaking of mixture consisting of 2.5 μL 4× test compound, […] and 2.5 μL 4×ATP Solution on Bar-coded Corning, low volume NBS, black 384-well plate (Corning Cat. #3676). Then the mixture was incubated for 60-minute at room temperature for the kinase reaction, followed by addition of 5 μL of a 1:1024 dilution of development reagent A and 30-second plate shake. The mixture was then incubated for another 60-minute at room temperature for development reaction. Fluorescence was read by plate reader. IC50 was calculated by plotting the concentration of compound vs the percentage of inhibition in treated wells using GraphPad Prism 5.
(§4) Table 2 and 3 show % inhibition at 1 μM of several compounds of the invention against BRAF and BRAF V600E, respectively, using Z′-LYTE® method.

A375 cells = assay: Inhibition of cancer cell growth, MTT or MTS assay, A375; type: cell-based; details: Homo sapiens, A-375, 72 h incubation
Description: as §1, §2

BRAF V600E = molecular target: T2, BRAF V600E (Homo sapiens, UniProt P15056, V600E); assay: Z'-LYTE kinase inhibition assay against BRAF V600E; type: biochemical; details: % inhibition at 1 μM, Z'-LYTE method
T2 construct: purchased Invitrogen
Description: as §3, §4
The scale utilized in Table 4 is as follows: +++ less than 100 nM; and ++ greater than 100 nM.

Colo205 cells = assay: Inhibition of cancer cell growth, MTT or MTS assay, Colo205; type: cell-based; details: Homo sapiens, COLO 205, 72 h incubation
Description: as §1, §2

KDR (VEGFR2) = molecular target: T3, KDR (VEGFR2) (Homo sapiens, UniProt P35968); assay: Z'-LYTE kinase inhibition assay against KDR; type: biochemical; details: Z'-LYTE method
T3 construct: purchased Invitrogen
Description: Inhibitory activities of compounds against KDR (VEGFR2) were also measured by Invitrogen using Z′-LYTE® Method as described above with the following modification. The 2×KDR (VEGFR2)/Tyr 01 mixture is prepared in 50 mM HEPES pH 7.5, 0.01% BRIJ-35, 10 mM MgCl2, 1 mM EGTA. The final 10 μL Kinase Reaction consists of 0.5-11.7 ng KDR (VEGFR2) and 2 μM Tyr 01 in 50 mM HEPES pH 7.5, 0.01% BRIJ-35, 10 mM MgCl2, 1 mM EGTA. After the 1 hour Kinase Reaction incubation, 5 μL of a 1:256 dilution of Development Reagent B is added.
The scale utilized in Table 6 is as follows: +++ less than 100 nM; and ++ greater than 100 nM

T1 sequence (P15056 whole entry): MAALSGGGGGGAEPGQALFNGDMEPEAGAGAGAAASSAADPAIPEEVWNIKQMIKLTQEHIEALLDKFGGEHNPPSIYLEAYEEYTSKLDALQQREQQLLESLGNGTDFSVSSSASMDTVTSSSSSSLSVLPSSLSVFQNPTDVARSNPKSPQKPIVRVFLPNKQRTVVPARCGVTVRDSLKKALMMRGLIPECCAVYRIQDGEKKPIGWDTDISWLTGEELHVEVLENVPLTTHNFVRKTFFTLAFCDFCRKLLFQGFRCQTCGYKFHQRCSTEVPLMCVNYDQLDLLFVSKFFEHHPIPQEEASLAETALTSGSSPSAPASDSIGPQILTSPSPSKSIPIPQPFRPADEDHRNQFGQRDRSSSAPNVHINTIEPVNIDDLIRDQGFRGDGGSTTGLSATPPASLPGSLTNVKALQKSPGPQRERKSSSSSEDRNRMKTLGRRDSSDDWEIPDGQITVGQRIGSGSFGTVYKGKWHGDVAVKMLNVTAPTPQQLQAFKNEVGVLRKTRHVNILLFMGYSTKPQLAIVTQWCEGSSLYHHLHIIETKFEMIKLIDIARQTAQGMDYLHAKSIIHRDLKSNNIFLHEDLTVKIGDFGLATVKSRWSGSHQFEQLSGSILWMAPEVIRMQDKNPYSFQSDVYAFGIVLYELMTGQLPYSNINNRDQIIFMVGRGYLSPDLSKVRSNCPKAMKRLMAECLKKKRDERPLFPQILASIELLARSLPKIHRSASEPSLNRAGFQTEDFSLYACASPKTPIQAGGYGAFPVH
T3 sequence (P35968 20-1356): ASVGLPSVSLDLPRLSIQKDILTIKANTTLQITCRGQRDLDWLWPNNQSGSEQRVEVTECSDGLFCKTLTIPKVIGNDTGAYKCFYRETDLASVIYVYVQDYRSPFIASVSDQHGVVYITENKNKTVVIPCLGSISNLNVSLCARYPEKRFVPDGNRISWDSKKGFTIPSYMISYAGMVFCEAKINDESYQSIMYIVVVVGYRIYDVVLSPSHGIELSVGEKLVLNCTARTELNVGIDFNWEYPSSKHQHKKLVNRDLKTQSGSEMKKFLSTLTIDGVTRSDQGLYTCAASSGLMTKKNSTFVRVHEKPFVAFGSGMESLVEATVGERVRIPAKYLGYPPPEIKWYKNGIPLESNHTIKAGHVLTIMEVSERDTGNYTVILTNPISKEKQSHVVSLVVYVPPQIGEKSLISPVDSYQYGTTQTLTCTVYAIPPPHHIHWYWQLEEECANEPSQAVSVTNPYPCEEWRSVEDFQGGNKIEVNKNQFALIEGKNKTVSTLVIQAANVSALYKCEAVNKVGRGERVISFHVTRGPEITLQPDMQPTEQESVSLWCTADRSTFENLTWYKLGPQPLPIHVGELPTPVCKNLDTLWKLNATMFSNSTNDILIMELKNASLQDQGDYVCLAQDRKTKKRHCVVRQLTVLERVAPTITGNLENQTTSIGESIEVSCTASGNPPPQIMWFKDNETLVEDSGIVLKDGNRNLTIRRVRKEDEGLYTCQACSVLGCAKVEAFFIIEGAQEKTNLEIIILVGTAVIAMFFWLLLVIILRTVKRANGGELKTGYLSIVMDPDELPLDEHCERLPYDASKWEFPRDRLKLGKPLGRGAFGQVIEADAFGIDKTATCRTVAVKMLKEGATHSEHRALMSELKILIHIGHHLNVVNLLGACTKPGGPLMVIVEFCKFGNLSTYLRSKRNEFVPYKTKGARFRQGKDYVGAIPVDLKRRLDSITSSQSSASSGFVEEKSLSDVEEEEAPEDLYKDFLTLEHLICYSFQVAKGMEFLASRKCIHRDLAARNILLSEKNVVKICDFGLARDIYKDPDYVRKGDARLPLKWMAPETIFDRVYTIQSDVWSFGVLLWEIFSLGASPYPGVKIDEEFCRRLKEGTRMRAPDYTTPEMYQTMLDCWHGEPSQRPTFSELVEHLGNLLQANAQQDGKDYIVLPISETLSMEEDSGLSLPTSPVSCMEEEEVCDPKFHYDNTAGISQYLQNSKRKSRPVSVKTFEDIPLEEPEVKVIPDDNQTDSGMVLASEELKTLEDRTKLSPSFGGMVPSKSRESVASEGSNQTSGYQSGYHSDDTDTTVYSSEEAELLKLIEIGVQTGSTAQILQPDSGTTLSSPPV
T2 sequence (P15056 whole entry V600E): as the sequence (P15056 whole entry) above, with V600E counted along it

SMILES	pIC50 (A549 cells)	inhibition at 1 µM (BRAF)	pIC50 (A375 cells)	inhibition at 1 µM (BRAF V600E)	pIC50 (Colo205 cells)	inhibition at 1 µM (KDR (VEGFR2))	pIC50 (KDR (VEGFR2))
O=C(Nc1ccc(C(=O)c2ccc3nccnc3c2)cc1)Nc1cccc(C(F)(F)F)c1 [Compound C01, 1-(4-(quinoxaline-6-carbonyl)phenyl)-3-(3-(trifluoromethyl)phenyl)urea]	< 5.30	< 70%	5.30 to 6.00	> 89%	< 5.30	< 70%	–
O=C(Nc1ccc(F)cc1)Nc1ccc(C(=O)c2ccc3ncc(N4CCOCC4)nc3c2)cc1 [Compound C05, 1-(4-fluorophenyl)-3-(4-(3-morpholinoquinoxaline-6-carbonyl)phenyl)urea]	< 5.30	< 70%	< 5.30	< 70%	–	< 70%	–
O=C(Nc1ccc(F)cc1)Nc1ccc(C(=O)c2ccc3ncc(N4CCNCC4)nc3c2)cc1 [Compound C10, 1-(4-fluorophenyl)-3-(4-(3-(piperazin-1-yl)quinoxaline-6-carbonyl)phenyl)urea]	5.30 to 6.00	< 70%	5.30 to 6.00	> 89%	–	< 70%	–
O=C(Nc1ccc(C(=O)c2ccc3ncc(N4CCNCC4)nc3c2)cc1)Nc1cccc(Cl)c1 [Compound C11, 1-(3-chlorophenyl)-3-(4-(3-(piperazin-1-yl)quinoxaline-6-carbonyl)phenyl)urea]	5.30 to 6.00	70 to 89%	5.30 to 6.00	> 89%	> 6.00	70 to 89%	< 7.00
O=C(Nc1ccc(C(=O)c2ccc3ncc(N4CCNCC4)nc3c2)cc1)Nc1ccc(C(F)(F)F)cc1 [Compound C13, 1-(4-(3-(piperazin-1-yl)quinoxaline-6-carbonyl)phenyl)-3-(4-(trifluoromethyl)phenyl)urea]	5.30 to 6.00	< 70%	> 6.00	> 89%	–	< 70%	–
N#Cc1ccc(NC(=O)Nc2ccc(C(=O)c3ccc4ncc(N5CCNCC5)nc4c3)cc2)cc1C(F)(F)F [Compound C16, 1-(4-cyano-3-(trifluoromethyl)phenyl)-3-(4-(3-(piperazin-1-yl)quinoxaline-6-carbonyl)phenyl)urea]	5.30 to 6.00	< 70%	> 6.00	> 89%	< 5.30	> 89%	< 7.00
O=C(Nc1ccc(C(=O)c2ccc3ncc(N4CCNCC4)nc3c2)cc1)Nc1cccc(F)c1 [Compound C19, 1-(3-fluorophenyl)-3-(4-(3-(piperazin-1-yl)quinoxaline-6-carbonyl)phenyl)urea]	5.30 to 6.00	< 70%	5.30 to 6.00	> 89%	–	< 70%	–
O=C(Nc1cccc(F)c1)Nc1ccc(C(=O)c2ccc3ncc(N4CCNCC4)nc3c2)c(F)c1 [Compound C20, 1-(3-fluoro-4-(3-(piperazin-1-yl)quinoxaline-6-carbonyl)phenyl)-3-(3-fluorophenyl)urea]	< 5.30	< 70%	5.30 to 6.00	> 89%	–	< 70%	–
O=C(Nc1ccc(C(=O)c2ccc3ncc(C4CCNCC4)nc3c2)cc1)Nc1cccc(C(F)(F)F)c1 [Compound C27, 1-(4-(3-(piperidin-4-yl)quinoxaline-6-carbonyl)phenyl)-3-(3-(trifluoromethyl)phenyl)urea]	< 5.30	–	< 5.30	70 to 89%	–	< 70%	–
O=C(Nc1ccc(C(=O)c2ccc3ncc(C4CCNCC4)nc3c2)cc1)Nc1ccc(F)c(C(F)(F)F)c1 [Compound C28, 1-(4-fluoro-3-(trifluoromethyl)phenyl)-3-(4-(3-(piperidin-4-yl)quinoxaline-6-carbonyl)phenyl)urea]	< 5.30	< 70%	5.30 to 6.00	70 to 89%	–	< 70%	–
N#Cc1cnc2ccc(C(=O)c3ccc(NC(=O)Nc4cccc(C(F)(F)F)c4)cc3F)cc2n1 [Compound C29, 1-(4-(3-cyanoquinoxaline-6-carbonyl)-3-fluorophenyl)-3-(3-(trifluoromethyl)phenyl)urea]	5.30 to 6.00	–	5.30 to 6.00	< 70%	–	< 70%	–
Cn1ccc(NC(=O)Nc2ccc(C(=O)c3ccc4ncc(N5CCNCC5)nc4c3)c(F)c2)n1 [Compound C31, 1-(3-fluoro-4-(3-(piperazin-1-yl)quinoxaline-6-carbonyl)phenyl)-3-(1-methyl-1H-pyrazol-3-yl)urea]	< 5.30	–	5.30 to 6.00	70 to 89%	–	< 70%	–

Further lines, results first:

pIC50 (A549 cells)	inhibition at 1 µM (BRAF)	pIC50 (A375 cells)	inhibition at 1 µM (BRAF V600E)	pIC50 (Colo205 cells)	inhibition at 1 µM (KDR (VEGFR2))	pIC50 (KDR (VEGFR2))	SMILES
5.30 to 6.00	< 70%	5.30 to 6.00	< 70%	–	< 70%	–	O=C(Nc1ccc(C(=O)c2ccc3nccnc3c2)cc1)Nc1cccc(F)c1 [Compound C02, 1-(3-fluorophenyl)-3-(4-(quinoxaline-6-carbonyl)phenyl)urea]
5.30 to 6.00	< 70%	5.30 to 6.00	< 70%	–	< 70%	–	O=C(Nc1ccc(C(=O)c2ccc3ncc(N4CCOCC4)nc3c2)cc1)Nc1cccc(Cl)c1 [Compound C03, 1-(3-chlorophenyl)-3-(4-(3-morpholinoquinoxaline-6-carbonyl)phenyl)urea]
5.30 to 6.00	< 70%	–	< 70%	–	< 70%	–	O=C(Nc1ccc(Cl)cc1)Nc1ccc(C(=O)c2ccc3ncc(N4CCOCC4)nc3c2)cc1 [Compound C04, 1-(4-chlorophenyl)-3-(4-(3-morpholinoquinoxaline-6-carbonyl)phenyl)urea]
5.30 to 6.00	70 to 89%	5.30 to 6.00	> 89%	5.30 to 6.00	< 70%	–	O=C(Nc1ccc(Cl)cc1)Nc1ccc(C(=O)c2ccc3ncc(N4CCNCC4)nc3c2)cc1 [Compound C09, 1-(4-chlorophenyl)-3-(4-(3-(piperazin-1-yl)quinoxaline-6-carbonyl)phenyl)urea]
> 6.00	< 70%	> 6.00	70 to 89%	5.30 to 6.00	70 to 89%	< 7.00	O=C(Nc1ccc(C(=O)c2ccc3ncc(N4CCNCC4)nc3c2)cc1)Nc1ccc(Cl)c(C(F)(F)F)c1 [Compound C12, 1-(4-chloro-3-(trifluoromethyl)phenyl)-3-(4-(3-(piperazin-1-yl)quinoxaline-6-carbonyl)phenyl)urea]
> 6.00	< 70%	> 6.00	> 89%	–	> 89%	> 7.00	N#Cc1ccc(CC(=O)Nc2ccc(C(=O)c3ccc4ncc(N5CCNCC5)nc4c3)c(F)c2)cc1C(F)(F)F [Compound C26, 2-(4-cyano-3-(trifluoromethyl)phenyl)-N-(3-fluoro-4-(3-(piperazin-1-yl)quinoxaline-6-carbonyl)phenyl)acetamide]
